Measurements: ChEMBL document CHEMBL1201862, “PubChem BioAssay data set” (2004)
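Method: 48-hour compound exposure of cells in 96-well plates, five concentrations, linear interpolation of endpoints. GI50: concentration for 50% inhibition of growth.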 Activity calls are given as the source filed them. No stated cut-off is given here; in the data, active = GI50 up to about 1.1 µM and inactive = higher.

Experiments:
Assay in all cases: growth of human tumour cells (NCI), 48 h
[1] = tested on: ACHN
[2] = tested on: COLO 205
[3] = tested on: HCC 2998
[4] = tested on: KM-20L2
[5] = tested on: LXFL 529
[6] = tested on: M19-MEL
[7] = tested on: NCI-H23
[8] = tested on: OVCAR-3
[9] = tested on: OVCAR-4
[10] = tested on: OVCAR-5
[11] = tested on: RPMI-8226
[12] = tested on: SW-620
[13] = tested on: UACC-257
[14] = tested on: UACC-62
[15] = tested on: XF498
[16] = tested on: HOP-18
[17] = tested on: MCF7
[18] = tested on: BT-549
[19] = tested on: MDA-N
[20] = tested on: T47D

With `Cc1ccccc1NC(=O)CC(=O)N1N=C(N2c3ccccc3Sc3ccccc32)CC1c1ccccc1` (stereo not drawn) the GI50 [1] was > 100 µM (inactive), the GI50 [2] was > 100 µM (inactive) and the GI50 [3] was > 100 µM (inactive). For the same compound, the GI50 [4] was > 100 µM (inactive), the GI50 [5] was > 100 µM (inactive) and the GI50 [6] was > 100 µM (inactive). The GI50 [7] was > 100 µM (inactive), the GI50 [8] was > 100 µM (inactive) and the GI50 [9] was > 100 µM (inactive). The GI50 [10] was > 100 µM (inactive), the GI50 [11] was > 100 µM (inactive) and the GI50 [12] was > 100 µM (inactive). For the same compound, the GI50 [13] was > 100 µM (inactive), the GI50 [14] was > 100 µM (inactive) and the GI50 [15] was > 100 µM (inactive).
`CC1(C)CC23C4COC(=O)C2CCC1C3CC4=O` (stereo not drawn) was tested, and the GI50 [2] was 15.6 µM (inactive), the GI50 [3] was 13.9 µM (inactive) and the GI50 [16] was 1.72 µM (inactive). The GI50 [4] was 21.4 µM (inactive), the GI50 [6] was 11.9 µM (inactive) and the GI50 [17] was 19.5 µM (inactive). For the same compound, the GI50 [7] was 3.27 µM (inactive), the GI50 [8] was 12.5 µM (inactive) and the GI50 [9] was 15.2 µM (inactive). For the same compound, the GI50 [10] was 32.6 µM (inactive), the GI50 [11] was 5.28 µM (inactive) and the GI50 [12] was 3.04 µM (inactive). The GI50 [13] was 9.59 µM (inactive), the GI50 [14] was 10.5 µM (inactive) and the GI50 [15] was 13.7 µM (inactive).
With `COC(=O)/C(C#N)=C1\CCC(O)N1C` (stereo not drawn) the GI50 [1] was > 100 µM (inactive), the GI50 [3] was > 100 µM (inactive) and the GI50 [16] was > 100 µM (inactive). For the same compound, the GI50 [4] was > 100 µM (inactive), the GI50 [5] was > 100 µM (inactive) and the GI50 [7] was > 100 µM (inactive). The GI50 [8] was > 100 µM (inactive), the GI50 [9] was > 100 µM (inactive) and the GI50 [10] was > 100 µM (inactive). For the same compound, the GI50 [11] was > 100 µM (inactive), the GI50 [12] was > 100 µM (inactive) and the GI50 [13] was > 100 µM (inactive). The GI50 [14] was > 100 µM (inactive) and the GI50 [15] was > 100 µM (inactive).
`CCCCSCC(NC(=O)/C=C/c1c(C)[nH]c(=O)[nH]c1=O)C(=O)OC` (stereo not drawn) was tested, and the GI50 [2] was 36.5 µM (inactive), the GI50 [3] was 29 µM (inactive) and the GI50 [16] was 61.2 µM (inactive). For the same compound, the GI50 [4] was 61.7 µM (inactive), the GI50 [6] was 38.4 µM (inactive) and the GI50 [17] was 15.6 µM (inactive). For the same compound, the GI50 [7] was 90.8 µM (inactive), the GI50 [8] was 13.2 µM (inactive) and the GI50 [9] was 13.8 µM (inactive). The GI50 [10] was 77.1 µM (inactive), the GI50 [11] was 104 µM (inactive) and the GI50 [12] was 78 µM (inactive). For the same compound, the GI50 [13] was 81.7 µM (inactive) and the GI50 [14] was 51.9 µM (inactive).
With `N=S(c1ccccc1[N+](=O)[O-])c1ccccc1[N+](=O)[O-]` the GI50 [1] was 1.77 µM (inactive), the GI50 [2] was 1.95 µM (inactive) and the GI50 [3] was 5.32 µM (inactive). For the same compound, the GI50 [16] was 5.3 µM (inactive), the GI50 [5] was 2.22 µM (inactive) and the GI50 [6] was 2.43 µM (inactive). The GI50 [7] was 5.26 µM (inactive), the GI50 [8] was 1.5 µM (inactive) and the GI50 [9] was 0.553 µM (active). For the same compound, the GI50 [10] was 6.08 µM (inactive), the GI50 [11] was 2.08 µM (inactive) and the GI50 [13] was 2.54 µM (inactive). For the same compound, the GI50 [14] was 4.34 µM (inactive).
`COC(=O)C1=C2CCC(=O)[C@@]2(C)C(OC(C)=O)C=CC1` (stereo partly drawn) was tested, and the GI50 [1] was > 100 µM (inactive), the GI50 [3] was > 100 µM (inactive) and the GI50 [4] was > 100 µM (inactive). The GI50 [5] was 36.8 µM (inactive), the GI50 [6] was > 100 µM (inactive) and the GI50 [7] was 76.9 µM (inactive). For the same compound, the GI50 [8] was 53.6 µM (inactive), the GI50 [9] was > 100 µM (inactive) and the GI50 [10] was > 100 µM (inactive). For the same compound, the GI50 [11] was 34.6 µM (inactive), the GI50 [12] was 36.4 µM (inactive) and the GI50 [13] was 40.5 µM (inactive). For the same compound, the GI50 [14] was 76.6 µM (inactive) and the GI50 [15] was 36.3 µM (inactive).
For `CCCCCCC/C=C1\CCC(CN(C)C)C1=O` (stereo not drawn), the GI50 [1] was 17.6 µM (inactive), the GI50 [18] was 14.7 µM (inactive) and the GI50 [2] was 10.2 µM (inactive). For the same compound, the GI50 [3] was 17.7 µM (inactive), the GI50 [16] was 17.2 µM (inactive) and the GI50 [4] was 19.1 µM (inactive). The GI50 [5] was 7.78 µM (inactive), the GI50 [17] was 3.24 µM (inactive) and the GI50 [19] was 13.2 µM (inactive). For the same compound, the GI50 [7] was 16.4 µM (inactive), the GI50 [8] was 9.38 µM (inactive) and the GI50 [9] was 16.6 µM (inactive). For the same compound, the GI50 [10] was 19.8 µM (inactive), the GI50 [11] was 0.968 µM (active) and the GI50 [12] was 6.19 µM (inactive). The GI50 [20] was 2.98 µM (inactive), the GI50 [13] was 15.1 µM (inactive) and the GI50 [14] was 14.6 µM (inactive). For the same compound, the GI50 [15] was 20.5 µM (inactive).
With `O=NN(CCF)C(=O)NC1CCSCC1` the GI50 [2] was > 100 µM (inactive), the GI50 [3] was > 100 µM (inactive) and the GI50 [16] was > 100 µM (inactive). The GI50 [4] was > 100 µM (inactive), the GI50 [6] was > 100 µM (inactive) and the GI50 [17] was > 100 µM (inactive). For the same compound, the GI50 [7] was > 100 µM (inactive), the GI50 [8] was > 100 µM (inactive) and the GI50 [9] was > 100 µM (inactive). The GI50 [10] was > 100 µM (inactive), the GI50 [11] was > 100 µM (inactive) and the GI50 [12] was > 100 µM (inactive). The GI50 [13] was > 100 µM (inactive), the GI50 [14] was > 100 µM (inactive) and the GI50 [15] was < 0.01 µM (active).
With `CC1CC2=Nc3ccccc3NC(c3ccccc3)C2=C(O)O1` (stereo not drawn) the GI50 [1] was > 100 µM (inactive), the GI50 [2] was > 100 µM (inactive) and the GI50 [3] was > 100 µM (inactive). For the same compound, the GI50 [16] was > 100 µM (inactive), the GI50 [4] was > 100 µM (inactive) and the GI50 [5] was > 100 µM (inactive). For the same compound, the GI50 [6] was > 100 µM (inactive), the GI50 [7] was > 100 µM (inactive) and the GI50 [8] was > 100 µM (inactive). The GI50 [10] was > 100 µM (inactive), the GI50 [12] was > 100 µM (inactive) and the GI50 [13] was > 100 µM (inactive). For the same compound, the GI50 [14] was 93.8 µM (inactive).
For `COC1=CC(=O)c2ccccc2C1(CCC=C(C)C)C1=NC(C)(C)CO1` (stereo not drawn), the GI50 [1] was 6.62 µM (inactive), the GI50 [2] was > 100 µM (inactive) and the GI50 [16] was 43.6 µM (inactive). The GI50 [4] was > 100 µM (inactive), the GI50 [5] was 50.7 µM (inactive) and the GI50 [6] was 48.2 µM (inactive). The GI50 [7] was 91.2 µM (inactive), the GI50 [8] was > 100 µM (inactive) and the GI50 [9] was 71.9 µM (inactive). The GI50 [11] was 32.2 µM (inactive), the GI50 [12] was > 100 µM (inactive) and the GI50 [13] was 54.6 µM (inactive). The GI50 [14] was > 100 µM (inactive).
In the case of `CC1(C)c2ccccc2C(C)(C)C(C(=O)Nc2ccccc2)C1C(=O)O` (stereo not drawn), the GI50 [1] is reported as > 100 µM (inactive), the GI50 [2] is reported as > 100 µM (inactive) and the GI50 [3] is reported as > 100 µM (inactive). For the same compound, the GI50 [16] was > 100 µM (inactive), the GI50 [4] was > 100 µM (inactive) and the GI50 [5] was > 100 µM (inactive). The GI50 [6] was > 100 µM (inactive), the GI50 [7] was > 100 µM (inactive) and the GI50 [8] was > 100 µM (inactive). The GI50 [10] was > 100 µM (inactive), the GI50 [11] was > 100 µM (inactive) and the GI50 [12] was > 100 µM (inactive). For the same compound, the GI50 [13] was > 100 µM (inactive) and the GI50 [14] was > 100 µM (inactive).
With `CCCCC1=CSC(c2ccccc2)=C(c2ccccc2)S1` the GI50 [2] was > 100 µM (inactive), the GI50 [3] was 37.6 µM (inactive) and the GI50 [16] was > 100 µM (inactive). The GI50 [4] was 42.8 µM (inactive), the GI50 [5] was 8.28 µM (inactive) and the GI50 [6] was 38.9 µM (inactive). The GI50 [7] was 36.1 µM (inactive), the GI50 [8] was 60.4 µM (inactive) and the GI50 [9] was 37.6 µM (inactive). The GI50 [11] was 9.23 µM (inactive), the GI50 [12] was 69 µM (inactive) and the GI50 [14] was 40.5 µM (inactive).
For `CC(C)(C)C1=NO[C@H]2[C@@H](NC(=O)c3ccccc3)CC[C@@H]12`, the GI50 [1] was > 100 µM (inactive), the GI50 [2] was > 100 µM (inactive) and the GI50 [3] was > 100 µM (inactive). The GI50 [4] was > 100 µM (inactive), the GI50 [5] was > 100 µM (inactive) and the GI50 [6] was > 100 µM (inactive). The GI50 [7] was > 100 µM (inactive), the GI50 [8] was > 100 µM (inactive) and the GI50 [9] was > 100 µM (inactive). For the same compound, the GI50 [10] was > 100 µM (inactive), the GI50 [11] was > 100 µM (inactive) and the GI50 [12] was > 100 µM (inactive). For the same compound, the GI50 [13] was > 100 µM (inactive), the GI50 [14] was > 100 µM (inactive) and the GI50 [15] was > 100 µM (inactive).
With `CC1Cc2c(N)nc(N3CCOCC3)nc2NC1=O` (stereo not drawn) the GI50 [1] was > 100 µM (inactive), the GI50 [2] was > 100 µM (inactive) and the GI50 [16] was > 100 µM (inactive). For the same compound, the GI50 [4] was > 100 µM (inactive), the GI50 [6] was > 100 µM (inactive) and the GI50 [7] was > 100 µM (inactive). The GI50 [8] was > 100 µM (inactive), the GI50 [11] was > 100 µM (inactive) and the GI50 [12] was > 100 µM (inactive). The GI50 [13] was > 100 µM (inactive), the GI50 [14] was > 100 µM (inactive) and the GI50 [15] was 0.463 µM (active).
